The species entered for test [1] is Felis catus. The test is described as follows: Tested for inhibition of cardioaccelerator nerves of cat. The class given is functional. As to conditions: read-out: ID50 (the source's name).
The species named for test [2] is Canis familiaris. The test is described as follows: Tested for mean blood pressure in dog after ID50 dose. Type of test: functional, Canis lupus familiaris.
For test [3], the system named is Canis familiaris. The test is described as follows: Tested for mean blood pressure in dog before drug administration. Type of test: functional, Canis lupus familiaris.
Test [4] is filed under the species Canis familiaris. As to the kind of experiment: Tested for mean heart rate in dog after ID50 dose. The class given is functional, Canis lupus familiaris.
Test [5] deals with Canis familiaris. The test is described as follows: Tested for mean heart rate in dog before drug administration. The class given is functional, Canis lupus familiaris.
The target in test [6] is T1, Alpha-1A adrenergic receptor (Homo sapiens) (UniProt P35348).
T1 sequence (whole entry): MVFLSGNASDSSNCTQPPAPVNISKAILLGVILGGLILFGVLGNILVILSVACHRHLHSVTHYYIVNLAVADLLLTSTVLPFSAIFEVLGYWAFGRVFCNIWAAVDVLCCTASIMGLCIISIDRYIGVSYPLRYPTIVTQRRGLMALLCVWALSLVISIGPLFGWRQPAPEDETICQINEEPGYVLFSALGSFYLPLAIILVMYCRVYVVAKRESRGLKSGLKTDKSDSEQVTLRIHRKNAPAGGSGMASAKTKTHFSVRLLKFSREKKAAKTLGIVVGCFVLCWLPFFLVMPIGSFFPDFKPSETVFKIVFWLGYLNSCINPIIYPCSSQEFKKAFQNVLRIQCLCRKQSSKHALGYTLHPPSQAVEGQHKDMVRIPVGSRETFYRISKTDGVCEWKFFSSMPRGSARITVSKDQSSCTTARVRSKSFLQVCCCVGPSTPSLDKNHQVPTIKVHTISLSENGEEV
As to the kind of experiment: Inhibitory activity against adrenergic alpha-receptor transmission, its effect being blocked by phentolamine. As to conditions: Felis catus.

As for `Br.CCCN1CCC[C@@H]2c3cc(O)c(O)cc3CC[C@H]21`, the ED50 in test [1] amounted to 0.0013 µmol/kg. Further, the Activity amounted to 73.6 mmHg in test [2], 116.4 mmHg in test [3], 156.9 beats min-1 in test [4] and 178 beats min-1 in test [5].

As to `Br.CCN1CCCC2c3cc(O)c(O)cc3CCC21` (stereo unspecified), the ED50 in test [1] was 0.45 µmol/kg. The Activity is given as 89.8 mmHg in test [2], 115 mmHg in test [3], 162.8 beats min-1 in test [4] and 183 beats min-1 in test [5].

`Br.CCN1CCC[C@@H]2c3cc(O)c(O)cc3CC[C@H]21`: in test [1], the ED50 is 0.0009 µmol/kg. The Activity worked out at 90.9 mmHg in test [2], 115.4 mmHg in test [3], 161.3 beats min-1 in test [4] and 176.9 beats min-1 in test [5].

In the case of `Br.CCCN1CCCC2c3cc(O)c(O)cc3CCC21` (stereo unspecified), the ED50 in test [1] came to 0.26 µmol/kg. Also, the Activity in test [2] was determined as 82.9 mmHg; in test [3], 114.9 mmHg; in test [4], 165 beats min-1; in test [5], 175.7 beats min-1.

On to `Br.CN1CCCC2c3cc(O)c(O)cc3CCC21` (cis isomer), for which the Activity in test [6] turned out to be 2 mg/kg; in test [2], 95.4 mmHg; in test [3], 125.8 mmHg; in test [4], 158.6 beats min-1; in test [5], 174 beats min-1. Moreover, the ED50 in test [1] stood at 0.31 µmol/kg.

As for `Br.CN1CCC[C@@H]2c3cc(O)c(O)cc3CC[C@H]21`, the ED50 in test [1] amounted to 0.0055 µmol/kg. The Activity is 95.6 mmHg in test [2], 116.7 mmHg in test [3], 160.9 beats min-1 in test [4] and 175.4 beats min-1 in test [5].

Turning to `CN1CCc2cccc3c2[C@H]1Cc1ccc(O)c(O)c1-3` [APOMORPHINE], in test [1], the ED50 is 0.022 µmol/kg. The Activity came to 92 mmHg in test [2], 109.5 mmHg in test [3], 128.9 beats min-1 in test [4] and 139.2 beats min-1 in test [5].

The values are drawn from ChEMBL document CHEMBL1121518, “Congeners of the beta conformer of dopamine derived from cis- and trans-octahydrobenzo[f]quinoline and trans-octahydrobenzo[g]quinoline” (1980).
